# Data taken from PubChem BioAssay (NCI).
#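 Grown in 96-well plates, cells were treated for 48 hours with each compound at five concentrations. Insufficient inhibition: endpoint recorded as highest concentration tested. TGI is the concentration that stops growth completely.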
# Test system: OVCAR-4 ovarian
# Assay: NCI anticancer screen, dose series, 48 h
row,SMILES,TGI
1,CC(=O)Nc1ccc(N2C(=O)/C(=C\c3cccc(Oc4ccccc4)c3)S(=O)(=O)C2c2ccccc2)cc1 (stereo not given),> 100 µM
2,O=c1cnn(C/C=C/CBr)c(=O)[nH]1,48 µM
3,CCCCS(=O)CCC(N)P(=O)(O)O (stereo not given),> 100 µM
4,O=C(O)CCC(=O)c1ccc[nH]1,> 100 µM

# Test system: LOX IMVI melanoma
# Assay: NCI anticancer screen, dose series, 48 h
row,SMILES,TGI
1,C1C2CC3CC1CC(Nc1nc(NC45CC6CC(CC(C6)C4)C5)nc(NC45CC6CC(CC(C6)C4)C5)n1)(C2)C3,> 52.1 µM
2,COc1cc(/C=C2\C[C@H]3[C@@H]4CCc5cc(O)ccc5[C@H]4CC[C@]3(C)C2=O)cc(OC)c1OC,30.7 µM
3,CC(=O)Nc1ccc(N2C(=O)/C(=C\c3cccc(Oc4ccccc4)c3)S(=O)(=O)C2c2ccccc2)cc1 (stereo not given),> 100 µM
4,O=c1cnn(C/C=C/CBr)c(=O)[nH]1,67.4 µM
5,CCCCS(=O)CCC(N)P(=O)(O)O (stereo not given),> 100 µM
6,O=C(O)CCC(=O)c1ccc[nH]1,> 100 µM

# Test system: HL-60(TB) leukemia
# Assay: NCI anticancer screen, dose series, 48 h
row,SMILES,TGI
1,C1C2CC3CC1CC(Nc1nc(NC45CC6CC(CC(C6)C4)C5)nc(NC45CC6CC(CC(C6)C4)C5)n1)(C2)C3,> 100 µM
2,COc1ccc(N2C(=O)CC(C3CC(C(C)(C)C)CCC3=O)C2=O)cc1 (stereo not given),> 100 µM
3,CC(=O)Nc1ccc(N2C(=O)/C(=C\c3cccc(Oc4ccccc4)c3)S(=O)(=O)C2c2ccccc2)cc1 (stereo not given),56.6 µM
4,O=c1cnn(C/C=C/CBr)c(=O)[nH]1,26.5 µM
5,CCCCS(=O)CCC(N)P(=O)(O)O (stereo not given),> 100 µM

# Test system: HCT-15 colon
# Assay: NCI anticancer screen, dose series, 48 h
row,SMILES,TGI
1,C1C2CC3CC1CC(Nc1nc(NC45CC6CC(CC(C6)C4)C5)nc(NC45CC6CC(CC(C6)C4)C5)n1)(C2)C3,> 100 µM
2,COc1cc(/C=C2\C[C@H]3[C@@H]4CCc5cc(O)ccc5[C@H]4CC[C@]3(C)C2=O)cc(OC)c1OC,> 100 µM
3,COc1ccc(N2C(=O)CC(C3CC(C(C)(C)C)CCC3=O)C2=O)cc1 (stereo not given),> 100 µM
4,CC(=O)Nc1ccc(N2C(=O)/C(=C\c3cccc(Oc4ccccc4)c3)S(=O)(=O)C2c2ccccc2)cc1 (stereo not given),> 100 µM
5,O=c1cnn(C/C=C/CBr)c(=O)[nH]1,39.2 µM
6,CCCCS(=O)CCC(N)P(=O)(O)O (stereo not given),> 100 µM
7,O=C(O)CCC(=O)c1ccc[nH]1,> 100 µM

# Test system: HT29 colon
# Assay: NCI anticancer screen, dose series, 48 h
row,SMILES,TGI
1,C1C2CC3CC1CC(Nc1nc(NC45CC6CC(CC(C6)C4)C5)nc(NC45CC6CC(CC(C6)C4)C5)n1)(C2)C3,> 100 µM
2,COc1cc(/C=C2\C[C@H]3[C@@H]4CCc5cc(O)ccc5[C@H]4CC[C@]3(C)C2=O)cc(OC)c1OC,25 µM
3,COc1ccc(N2C(=O)CC(C3CC(C(C)(C)C)CCC3=O)C2=O)cc1 (stereo not given),> 100 µM
4,CC(=O)Nc1ccc(N2C(=O)/C(=C\c3cccc(Oc4ccccc4)c3)S(=O)(=O)C2c2ccccc2)cc1 (stereo not given),> 100 µM
5,O=c1cnn(C/C=C/CBr)c(=O)[nH]1,29.2 µM
6,CCCCS(=O)CCC(N)P(=O)(O)O (stereo not given),> 100 µM
7,O=C(O)CCC(=O)c1ccc[nH]1,> 100 µM

# Test system: COLO 205 colon
# Assay: NCI anticancer screen, dose series, 48 h
row,SMILES,TGI
1,C1C2CC3CC1CC(Nc1nc(NC45CC6CC(CC(C6)C4)C5)nc(NC45CC6CC(CC(C6)C4)C5)n1)(C2)C3,> 94.9 µM
2,COc1cc(/C=C2\C[C@H]3[C@@H]4CCc5cc(O)ccc5[C@H]4CC[C@]3(C)C2=O)cc(OC)c1OC,61.5 µM
3,COc1ccc(N2C(=O)CC(C3CC(C(C)(C)C)CCC3=O)C2=O)cc1 (stereo not given),> 100 µM
4,CC(=O)Nc1ccc(N2C(=O)/C(=C\c3cccc(Oc4ccccc4)c3)S(=O)(=O)C2c2ccccc2)cc1 (stereo not given),> 100 µM
5,O=c1cnn(C/C=C/CBr)c(=O)[nH]1,41.9 µM
6,CCCCS(=O)CCC(N)P(=O)(O)O (stereo not given),> 100 µM
7,O=C(O)CCC(=O)c1ccc[nH]1,> 100 µM

# Test system: HCT-116 colon
# Assay: NCI anticancer screen, dose series, 48 h
row,SMILES,TGI
1,C1C2CC3CC1CC(Nc1nc(NC45CC6CC(CC(C6)C4)C5)nc(NC45CC6CC(CC(C6)C4)C5)n1)(C2)C3,> 100 µM
2,COc1cc(/C=C2\C[C@H]3[C@@H]4CCc5cc(O)ccc5[C@H]4CC[C@]3(C)C2=O)cc(OC)c1OC,28.6 µM
3,COc1ccc(N2C(=O)CC(C3CC(C(C)(C)C)CCC3=O)C2=O)cc1 (stereo not given),> 100 µM
4,CC(=O)Nc1ccc(N2C(=O)/C(=C\c3cccc(Oc4ccccc4)c3)S(=O)(=O)C2c2ccccc2)cc1 (stereo not given),> 100 µM
5,CCCCS(=O)CCC(N)P(=O)(O)O (stereo not given),> 100 µM
6,O=C(O)CCC(=O)c1ccc[nH]1,> 100 µM

# Test system: MALME-3M melanoma
# Assay: NCI anticancer screen, dose series, 48 h
row,SMILES,TGI
1,C1C2CC3CC1CC(Nc1nc(NC45CC6CC(CC(C6)C4)C5)nc(NC45CC6CC(CC(C6)C4)C5)n1)(C2)C3,> 100 µM
2,COc1cc(/C=C2\C[C@H]3[C@@H]4CCc5cc(O)ccc5[C@H]4CC[C@]3(C)C2=O)cc(OC)c1OC,13.4 µM
3,CC(=O)Nc1ccc(N2C(=O)/C(=C\c3cccc(Oc4ccccc4)c3)S(=O)(=O)C2c2ccccc2)cc1 (stereo not given),> 100 µM
4,O=c1cnn(C/C=C/CBr)c(=O)[nH]1,32 µM
5,CCCCS(=O)CCC(N)P(=O)(O)O (stereo not given),> 100 µM
6,O=C(O)CCC(=O)c1ccc[nH]1,> 100 µM

# Test system: ACHN renal
# Assay: NCI anticancer screen, dose series, 48 h
row,SMILES,TGI
1,C1C2CC3CC1CC(Nc1nc(NC45CC6CC(CC(C6)C4)C5)nc(NC45CC6CC(CC(C6)C4)C5)n1)(C2)C3,> 100 µM
2,COc1cc(/C=C2\C[C@H]3[C@@H]4CCc5cc(O)ccc5[C@H]4CC[C@]3(C)C2=O)cc(OC)c1OC,38.7 µM
3,COc1ccc(N2C(=O)CC(C3CC(C(C)(C)C)CCC3=O)C2=O)cc1 (stereo not given),> 100 µM
4,CC(=O)Nc1ccc(N2C(=O)/C(=C\c3cccc(Oc4ccccc4)c3)S(=O)(=O)C2c2ccccc2)cc1 (stereo not given),> 100 µM
5,O=c1cnn(C/C=C/CBr)c(=O)[nH]1,37.1 µM
6,CCCCS(=O)CCC(N)P(=O)(O)O (stereo not given),> 100 µM
7,O=C(O)CCC(=O)c1ccc[nH]1,> 100 µM

# Test system: HS 578T breast
# Assay: NCI anticancer screen, dose series, 48 h
row,SMILES,TGI
1,C1C2CC3CC1CC(Nc1nc(NC45CC6CC(CC(C6)C4)C5)nc(NC45CC6CC(CC(C6)C4)C5)n1)(C2)C3,> 100 µM
2,COc1ccc(N2C(=O)CC(C3CC(C(C)(C)C)CCC3=O)C2=O)cc1 (stereo not given),> 100 µM
3,O=c1cnn(C/C=C/CBr)c(=O)[nH]1,> 100 µM
4,CCCCS(=O)CCC(N)P(=O)(O)O (stereo not given),> 100 µM
5,O=C(O)CCC(=O)c1ccc[nH]1,> 100 µM

# Test system: SF-539 CNS
# Assay: NCI anticancer screen, dose series, 48 h
row,SMILES,TGI
1,C1C2CC3CC1CC(Nc1nc(NC45CC6CC(CC(C6)C4)C5)nc(NC45CC6CC(CC(C6)C4)C5)n1)(C2)C3,> 100 µM
2,COc1cc(/C=C2\C[C@H]3[C@@H]4CCc5cc(O)ccc5[C@H]4CC[C@]3(C)C2=O)cc(OC)c1OC,90.5 µM
3,COc1ccc(N2C(=O)CC(C3CC(C(C)(C)C)CCC3=O)C2=O)cc1 (stereo not given),> 100 µM
4,CC(=O)Nc1ccc(N2C(=O)/C(=C\c3cccc(Oc4ccccc4)c3)S(=O)(=O)C2c2ccccc2)cc1 (stereo not given),62.5 µM
5,O=c1cnn(C/C=C/CBr)c(=O)[nH]1,31.6 µM
6,O=C(O)CCC(=O)c1ccc[nH]1,> 100 µM

# Test system: A549 NSCLC
# Assay: NCI anticancer screen, dose series, 48 h
row,SMILES,TGI
1,C1C2CC3CC1CC(Nc1nc(NC45CC6CC(CC(C6)C4)C5)nc(NC45CC6CC(CC(C6)C4)C5)n1)(C2)C3,> 100 µM
2,COc1cc(/C=C2\C[C@H]3[C@@H]4CCc5cc(O)ccc5[C@H]4CC[C@]3(C)C2=O)cc(OC)c1OC,31.8 µM
3,COc1ccc(N2C(=O)CC(C3CC(C(C)(C)C)CCC3=O)C2=O)cc1 (stereo not given),> 100 µM
4,CC(=O)Nc1ccc(N2C(=O)/C(=C\c3cccc(Oc4ccccc4)c3)S(=O)(=O)C2c2ccccc2)cc1 (stereo not given),> 100 µM
5,O=c1cnn(C/C=C/CBr)c(=O)[nH]1,33.9 µM
6,CCCCS(=O)CCC(N)P(=O)(O)O (stereo not given),> 100 µM
7,O=C(O)CCC(=O)c1ccc[nH]1,> 100 µM

# Test system: SN12C renal
# Assay: NCI anticancer screen, dose series, 48 h
row,SMILES,TGI
1,C1C2CC3CC1CC(Nc1nc(NC45CC6CC(CC(C6)C4)C5)nc(NC45CC6CC(CC(C6)C4)C5)n1)(C2)C3,> 100 µM
2,COc1cc(/C=C2\C[C@H]3[C@@H]4CCc5cc(O)ccc5[C@H]4CC[C@]3(C)C2=O)cc(OC)c1OC,39.5 µM
3,COc1ccc(N2C(=O)CC(C3CC(C(C)(C)C)CCC3=O)C2=O)cc1 (stereo not given),> 100 µM
4,CC(=O)Nc1ccc(N2C(=O)/C(=C\c3cccc(Oc4ccccc4)c3)S(=O)(=O)C2c2ccccc2)cc1 (stereo not given),> 100 µM
5,O=c1cnn(C/C=C/CBr)c(=O)[nH]1,41.6 µM
6,CCCCS(=O)CCC(N)P(=O)(O)O (stereo not given),> 100 µM
7,O=C(O)CCC(=O)c1ccc[nH]1,> 100 µM

# Test system: SNB-75 CNS
# Assay: NCI anticancer screen, dose series, 48 h
row,SMILES,TGI
1,C1C2CC3CC1CC(Nc1nc(NC45CC6CC(CC(C6)C4)C5)nc(NC45CC6CC(CC(C6)C4)C5)n1)(C2)C3,> 79.2 µM
2,COc1cc(/C=C2\C[C@H]3[C@@H]4CCc5cc(O)ccc5[C@H]4CC[C@]3(C)C2=O)cc(OC)c1OC,26.4 µM
3,COc1ccc(N2C(=O)CC(C3CC(C(C)(C)C)CCC3=O)C2=O)cc1 (stereo not given),> 100 µM
4,CC(=O)Nc1ccc(N2C(=O)/C(=C\c3cccc(Oc4ccccc4)c3)S(=O)(=O)C2c2ccccc2)cc1 (stereo not given),> 100 µM
5,O=c1cnn(C/C=C/CBr)c(=O)[nH]1,33.4 µM
6,CCCCS(=O)CCC(N)P(=O)(O)O (stereo not given),> 100 µM
7,O=C(O)CCC(=O)c1ccc[nH]1,> 100 µM

# Test system: T-47D breast
# Assay: NCI anticancer screen, dose series, 48 h
row,SMILES,TGI
1,C1C2CC3CC1CC(Nc1nc(NC45CC6CC(CC(C6)C4)C5)nc(NC45CC6CC(CC(C6)C4)C5)n1)(C2)C3,> 100 µM
2,COc1cc(/C=C2\C[C@H]3[C@@H]4CCc5cc(O)ccc5[C@H]4CC[C@]3(C)C2=O)cc(OC)c1OC,38.5 µM
3,COc1ccc(N2C(=O)CC(C3CC(C(C)(C)C)CCC3=O)C2=O)cc1 (stereo not given),> 100 µM
4,CC(=O)Nc1ccc(N2C(=O)/C(=C\c3cccc(Oc4ccccc4)c3)S(=O)(=O)C2c2ccccc2)cc1 (stereo not given),> 100 µM
5,O=c1cnn(C/C=C/CBr)c(=O)[nH]1,57 µM
6,CCCCS(=O)CCC(N)P(=O)(O)O (stereo not given),> 100 µM
7,O=C(O)CCC(=O)c1ccc[nH]1,> 100 µM

# Test system: SNB-19 CNS
# Assay: NCI anticancer screen, dose series, 48 h
row,SMILES,TGI
1,C1C2CC3CC1CC(Nc1nc(NC45CC6CC(CC(C6)C4)C5)nc(NC45CC6CC(CC(C6)C4)C5)n1)(C2)C3,> 100 µM
